# Experimental data as given in patent US12534699B2, “Method for promoting growth of bacteria of genus Bifidobacterium” (KABUSHIKI KAISHA YAKULT HONSHA, priority 2019, dated 2026).
# Columns and labels:
# [1] = tested on: Bifidobacterium breve YIT 12272 (BbY); experiment: Culture of BbY in whey culture medium with L-cystine or L-cysteine; assay type: cell-based; settings: for concentration at which the viable cell count was maximum: whey simultaneous heating culture medium, 12 hours
# Method: (§1) A skimmed milk powder was dissolved in RO water at 12% (w/v), and the 12% (w/v) skimmed milk was adjusted to a pH of 4.6 with 5 N HCl, followed by centrifugation at 3,000×g for 5 minutes. Subsequently, the supernatant was adjusted to a pH of 6.5 with 5 N NaOH and was centrifuged at 10,000×g for 15 to 30 minutes. The supernatant was dispensed in 10 mL aliquots in a rimmed medium-sized test tube while replacing the headspace with nitrogen gas and sealed with a butyl rubber stopper. Subsequently, the supernatant was sterilized by heat in an autoclave at 115° C. for 30 minutes to provide a whey culture medium separated before heating. In addition, as in the skimmed milk culture medium, simultaneous heating culture medium was prepared in anaerobic conditions by adding L-cystine or L-cysteine before heating and then performing heat sterilization. The addition concentration of L-cystine or L-cysteine was adjusted to 0.001, 0.003, 0.005, 0.01, 0.03, 0.05, or 0.1% (w/v) as the final concentration.
# (§2) Inoculation and culture were performed as in Example 1 except that only when BbY was cultured in the skimmed milk culture medium, the culture time was 9 hours.
# As in Example 2, whey separated before heating and simultaneous heating culture media with L-cysteine was prepared. In addition, a culture medium in which L-cysteine was added after heat sterilization and immediately before inoculation (individual heating culture medium) was also prepared. The addition concentration of L-cysteine was 0.03 (w/v) % as the final concentration.
# A skimmed milk powder was dissolved in RO water at 12% (w/v), and the 12% (w/v) skimmed milk was sterilized by heat in an autoclave at 115° C. for 30 minutes in anaerobic conditions by nitrogen gas and was then adjusted to a pH of 4.6 with 5 N HCl, followed by centrifugation at 3,000×g for 5 minutes. Subsequently, the supernatant was adjusted to a pH of 6.5 with 5 N NaOH and was centrifuged at 10,000×g for 15 to 30 minutes. The supernatant was dispensed in 10 mL aliquots in a pre-sterilized rimmed medium-sized test tube while replacing the headspace with nitrogen gas and sealed with a butyl rubber stopper to provide a whey culture medium separated after heating. In addition, as in the skimmed milk culture media of Example 1, in anaerobic conditions, a culture medium in which L-cysteine was added before heating and then heat sterilization was performed (simultaneous heating culture medium) and a culture medium in which addition was performed after heat sterilization and before adjustment to pH 4.6 (individual heating culture medium) were also prepared.
# Inoculation and culture were performed as in Example 1.
# Based on the viable cell counts in (iii), each viable cell count ratio was calculated by dividing the viable cell count in the simultaneous heating culture medium by the viable cell count in the individual heating culture medium.
# [2] = tested on: Bifidobacterium bifidum YIT 10347 (BF-1); experiment: Culture of BF-1 in whey culture medium with L-cystine or L-cysteine; assay type: cell-based; settings: BF-1, whey simultaneous heating culture medium, 12 hours
# Method: as §1, §2
# [3] = whey separated after heating, L-cysteine, individual heating, culture time 9 h
# [4] = whey separated after heating, L-cysteine, individual heating, culture time 12 h
# [5] = whey separated after heating, L-cysteine, simultaneous heating, culture time 9 h
# [6] = whey separated after heating, L-cysteine, simultaneous heating, culture time 12 h
# [7] = whey separated before heating, L-cysteine 0.03 (w/v) %, individual heating, culture time 9 h
# [8] = whey separated before heating, L-cysteine 0.03 (w/v) %, individual heating, culture time 12 h
# [9] = whey separated before heating, L-cysteine 0.03 (w/v) %, simultaneous heating, culture time 9 h
# [10] = whey separated before heating, L-cysteine 0.03 (w/v) %, simultaneous heating, culture time 12 h
smiles,measurement,setting,value
"Cl.N[C@@H](CS)C(=O)O [L-cysteine, L-cysteine hydrochloride]",Acidity,[1]; [3],3.43 ml/9 g
same,Viable cell count,[1]; [3],8.89 × 10^8 CFU/ml
same,pH,[1]; [3],5.14
same,Acidity,[1]; [4],4.78 ml/9 g
same,Viable cell count,[1]; [4],1.32 × 10^9 CFU/ml
same,pH,[1]; [4],4.81
same,Acidity,[1]; [5],4.23 ml/9 g
same,Viable cell count,[1]; [5],1.29 × 10^9 CFU/ml
same,pH,[1]; [5],4.85
same,Acidity,[1]; [6],7.28 ml/9 g
same,Viable cell count,[1]; [6],2.22 × 10^9 CFU/ml
same,pH,[1]; [6],4.32
same,Viable cell count ratio (simultaneous/individual),"[1]; whey separated after heating, culture time 9 h",1.45
same,Viable cell count ratio (simultaneous/individual),"[1]; whey separated after heating, culture time 12 h",1.68
same,Acidity,[1]; [7],2.15 ml/9 g
same,Viable cell count,[1]; [7],1.24 × 10^8 CFU/ml
same,pH,[1]; [7],4.97
same,Acidity,[1]; [8],2.55 ml/9 g
same,Viable cell count,[1]; [8],1.42 × 10^8 CFU/ml
same,pH,[1]; [8],4.82
same,Acidity,[1]; [9],2.15 ml/9 g
same,Viable cell count,[1]; [9],2.53 × 10^8 CFU/ml
same,pH,[1]; [9],5.01
same,Acidity,[1]; [10],2.29 ml/9 g
same,Viable cell count,[1]; [10],3.29 × 10^8 CFU/ml
same,pH,[1]; [10],4.85
same,Viable cell count ratio (simultaneous/individual),"[1]; whey separated before heating, culture time 9 h",2.04
same,Viable cell count ratio (simultaneous/individual),"[1]; whey separated before heating, culture time 12 h",2.31
same,concentration at which the viable cell count was maximum,[1],0.01 % (w/v)
same,concentration at which the viable cell count was maximum,[2],0.03 % (w/v)
N[C@@H](CSSC[C@H](N)C(=O)O)C(=O)O [L-cystine],concentration at which the viable cell count was maximum,[1],0.01 % (w/v)
same,concentration at which the viable cell count was maximum,[2],0.03 % (w/v)
